Test results as given in article PMC8746705, “Comparison of Experimental Strategies to Study L-Type Amino Acid Transporter 1 (LAT1) Utilization by Ligands” (Molecules, 2021).

Key:
[1] = system: brain amino acids L-Leu, L-Trp, L-Tyr and L-Tyr metabolites; assay: Brain amino acid homeostasis after i.p. dose to mice; type: in vivo; conditions: mouse brain, single i.p. dose 25 µmol/kg; for Brain 3,4-dihydroxyphenylacetic acid levels: compound 2: 2 and 4 h compared to first time point (10 min)
Protocol: Adult male mice weighing 25 ± 5 g were supplied by Envigo (Venray, Netherlands). Mice were housed in stainless steel cages on a 12 h light (07:00–19:00) and 12 h dark (19:00–07:00) cycle at an ambient temperature of 22 ± 1 °C with a relative humidity of 50–60%. All experiments were carried out during the light phase. Tap water and food pellets (Lactamin R36; Lactamin AB, Södertälje, Sweden) were available ad libitum. A dose of 25 µmol/kg of compound 1, 2, or 8–11 was given as a bolus injection (i.p.) to mice. The mice were decapitated at selected time points between (10–360 min) and brain tissues were collected for sample preparation to be analyzed by liquid chromatography-mass spectrometric (LC-MS/MS) analysis.
Brain samples were prepared similarly as described above by homogenizing the pre-weigh tissues with ultrapure water (1:3). Subsequently, 100 µL of the homogenates was taken, and the proteins were precipitated with 300 µL of ACN containing the internal standard (labetalol).
Samples were vortexed and centrifuged at 10,000× g at 4 °C for 10 min. 200 µL of supernatant was mixed with 100 µL of ultrapure water and injected to LC-MS/MS equipment described above. The amounts of three known LAT1-utilizing amino acids, L-Leu, L-Tyr, and L-Trp, and two L-Tyr metabolites, namely p-hydroxyphenylacetate and 3,4-dihydroxyphenylacetic acid, were quantified with a method described earlier. […] Data were acquired using the Agilent MassHunter Workstation Acquisition software (Data Acquisition for Triple Quadrupole Mass Spectrometer, version B.03.01) and processed and analyzed with Quantitative Analysis (B.04.00) software. The lower limit of quantification (LLOQ) for the amino acids in tissue samples was 0.1 nM for L-Leu, L-Tyr, and L-Trp and 1 nM for p-hydroxyphenylacetate and 3,4-dihydroxyphenylacetic acid. […] The concentrations of the amino acids and their metabolites were calculated from the standard curve that was prepared by spiking known amounts of compounds to ACN including the selected internal standard.

[2] = Stability / bioconversion of prodrugs to parent drugs (biological media, 0.1 M NaOH cell lysing); type: in vitro ADME; conditions: cell lysate samples for LC-MS/MS (Table S1 footnote)
Text: LAT1-utilizing prodrugs 1–15 (Figure 1) were selected for this study based on their ability to utilize LAT1 expressed in cells used in our previous studies. Therefore, the syntheses of these compounds are not described herein as they have been reported earlier. These compounds include prodrugs of an investigational immunosuppressive agent, perforin inhibitor (1), non-steroidal anti-inflammatory drugs (NSAIDs), ketoprofen (2–4, 14), salicylic acid (8), flurbiprofen (9 and 12), ibuprofen (10 and 13) and naproxen (11 and 15), as well as the polyphenolic antioxidant, ferulic acid (5–7). […] In addition, all NSAID prodrugs (compounds 2–4, 9–15) were prepared from their pure S-enantiomers. Prodrugs of ferulic acid (compounds 5–7) were mixtures of E- and […], which were interconvertible over time. […] Therefore, both prodrug and the released parent drug proportions were quantified and taken into account when calculating concentrations transported into the cells.
1. LC-MS/MS ionization parameters of compounds 1-15
Table S1. Ionization parameters for the LC-MS/MS methods of the studied compounds.
Precursor Product Fragmentor Collision Flow rate Gradient LLOQ
Compound ion ion(s) Voltage (V) Energy (mL/min) (A:B) (nM) […]
perforin inhibitor 1a and therefore, their transitions with a positive ion mode are reported only as KPF or as a prodrug and parent drug in parentheses. […]
drugs (ferulic acid (FA), flurbiprofen (FLB), ibuprofen (IBU), and naproxen (NPX), respectively), whose transitions with a negative ion mode are reported below the studied LAT1 -utilizing compounds i n parentheses.

LAT1 [3] = molecular target: T1, LAT1 (Mus musculus, UniProt Q9Z127); assay: Cellular uptake of L-leucine after pre-incubation of BV2 cells with the compounds; type: cell-based; conditions: 100 µM (L-glutamine 2 mM) pre-incubated 10 min or 3 h, L-leucine 1–400 µM, 5 min
T1 sequence (Q9Z127 whole entry): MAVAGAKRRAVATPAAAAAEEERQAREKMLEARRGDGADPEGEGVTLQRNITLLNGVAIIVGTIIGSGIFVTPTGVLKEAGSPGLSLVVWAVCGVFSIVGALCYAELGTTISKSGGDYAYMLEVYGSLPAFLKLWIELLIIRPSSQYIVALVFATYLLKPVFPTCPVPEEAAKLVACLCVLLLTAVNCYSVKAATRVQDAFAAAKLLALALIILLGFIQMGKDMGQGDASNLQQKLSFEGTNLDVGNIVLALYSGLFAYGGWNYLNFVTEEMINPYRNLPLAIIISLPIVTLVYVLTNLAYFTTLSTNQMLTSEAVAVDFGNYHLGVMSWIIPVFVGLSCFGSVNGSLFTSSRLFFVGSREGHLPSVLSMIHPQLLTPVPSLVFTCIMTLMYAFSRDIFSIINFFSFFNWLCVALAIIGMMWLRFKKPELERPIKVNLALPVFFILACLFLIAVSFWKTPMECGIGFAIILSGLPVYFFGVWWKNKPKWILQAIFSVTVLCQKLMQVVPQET
T1 sequence (P10852 whole entry partner): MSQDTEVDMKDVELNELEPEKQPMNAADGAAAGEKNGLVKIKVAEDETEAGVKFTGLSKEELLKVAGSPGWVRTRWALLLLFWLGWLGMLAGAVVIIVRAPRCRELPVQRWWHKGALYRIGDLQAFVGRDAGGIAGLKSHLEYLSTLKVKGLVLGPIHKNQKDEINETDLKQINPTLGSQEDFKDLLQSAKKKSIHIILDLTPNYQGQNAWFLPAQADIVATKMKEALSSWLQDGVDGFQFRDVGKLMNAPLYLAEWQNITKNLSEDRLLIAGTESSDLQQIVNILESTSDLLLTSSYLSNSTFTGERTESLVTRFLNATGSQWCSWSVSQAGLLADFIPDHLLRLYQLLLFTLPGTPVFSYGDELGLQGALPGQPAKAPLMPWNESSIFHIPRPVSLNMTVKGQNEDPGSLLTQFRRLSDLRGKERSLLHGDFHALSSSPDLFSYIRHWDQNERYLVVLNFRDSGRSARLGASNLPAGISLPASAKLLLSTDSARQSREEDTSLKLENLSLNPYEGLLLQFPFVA
Protocol: The ability of compounds 1–15 to affect the uptake of a known LAT1 substrate L-leucine was evaluated by pre-incubating the BV2 cells at 37 °C for 10 min or 3 h with uptake buffer pH 7.4 (250 μL) containing 100 µM of compounds 1–15 or thyroxin (T4), or known nuclear receptor inducible compounds, phenobarbital (constitutive androstane receptor, CAR), and dexamethasone (pregnane X receptor, PXR) as controls. […] After incubation, the reaction was stopped by adding 250 µL of ice-cold HBSS, and the cells were washed two times with ice-cold HBSS. The cells were then lysed with 500 μL of 0.1 M NaOH (60 min) and the lysate was mixed with 3.5 mL of Emulsifier safe cocktail (Ultima Gold, PerkinElmer, Waltham, MA, USA). The radioactivity in the cells was measured by liquid scintillation counting (MicroBeta^2 counter, PerkinElmer Waltham, MA, USA). The results were multiplied by the amount of un-labeled proportion of L-leucine in each sample.

LAT1 [4] = molecular target: T1, LAT1; design: method as in earlier work; conditions: BV2 cells; probe [14C]-L-Leu; mean ± SD; published earlier; ref [31] or [33]; read-out: IC50 of [14C]-L-Leu uptake; cited from earlier work

Structure (SMILES): NC(Cc1cccc(C(=O)Oc2ccc(-c3ccc(-c4ccc5c(c4)COC5=O)s3)cc2)c1)C(=O)O (stereo not drawn) [Compound 1]
- Brain p-hydroxyphenylacetate levels ([1]; after 30 min of the bolus injection compared to other time points): significantly lower
- Conversion to parent drug in the analysed samples [2]: partly

Structure (SMILES): C[C@H](C(=O)Nc1cccc(C[C@H](N)C(=O)O)c1)c1cccc(C(=O)c2ccccc2)c1 [Compound 2]
- Effect on cellular uptake of L-Leu after pre-incubation (LAT1 [3]): induced the uptake of L-Leu
- Brain 3,4-dihydroxyphenylacetic acid levels [1]: significant reduction

Structure (SMILES): C[C@H](C(=O)Oc1cccc(C[C@H](N)C(=O)O)c1)c1cccc(C(=O)c2ccccc2)c1 [Compound 4]
- Conversion to parent drug in the analysed samples [2]: fully converted into ketoprofen

Structure (SMILES): COc1cc(C=CC(=O)NCc2cccc(CC(N)C(=O)O)c2)ccc1O (stereo not drawn) [Compound 5]
- Effect on cellular uptake of L-Leu after pre-incubation (LAT1 [3]): induced the uptake of L-Leu

Structure (SMILES): COc1cc(/C=C/C(=O)Oc2cccc(C[C@H](N)C(=O)O)c2)ccc1O [Compound 7]
- Conversion to parent drug in the analysed samples [2]: partly converted to their parent

Structure (SMILES): N[C@@H](Cc1cccc(NC(=O)c2ccccc2O)c1)C(=O)O [Compound 8]
- Brain 3,4-dihydroxyphenylacetic acid levels [1]: Not detected at all
- IC50 (LAT1 [4]): 18.9 ± 1.6 µM

Structure (SMILES): C[C@H](C(=O)Oc1cccc(C[C@H](N)C(=O)O)c1)c1ccc(-c2ccccc2)c(F)c1 [Compound 12]
- IC50 (LAT1 [4]): 4.2 ± 1.2 µM
- Conversion to parent drug in the analysed samples [2]: partly converted to their parent

Structure (SMILES): COc1ccc2cc([C@H](C)C(=O)Oc3cccc(C[C@H](N)C(=O)O)c3)ccc2c1 [Compound 15]
- Conversion to parent drug in the analysed samples [2]: partly converted to their parent
